Reference: patent publication US8278343B2, “Pyrrolidines” (Pfizer Inc., priority 2008, dated 2012)

Molecular target: T1, recombinant human EP-2 receptor (Homo sapiens, UniProt P43116)
T1 construct: stably transfected with full length cDNA encoding human Prostaglandin E2; expressed in transfected cells
Assay: In vitro antagonist potency against recombinant human prostaglandin E2 (EP-2) receptor in CHO cells (cAMP, Protocol 1)
Type: cell-based
Conditions: CHO cells expressing recombinant human EP-2 receptor, stimulated with 5 nM PGE2; cAMP readout; Ki by Cheng-Prusoff equation; read-out: EP2 Ki
Description: 1.0 Measurement of In Vitro Antagonist Potency (IC50) of Compounds Against Recombinant Human Prostaglandin E2 Receptor in CHO Cells
The prostaglandin E2 (EP-2) receptor is Gs coupled and agonism of the receptor by PGE2 results in activation of intracellular adenylate cyclase enzymes that synthesise the second messenger signalling molecule, adenosine 3′,5′-cyclic monophosphate (cAMP). CHO cells expressing the recombinant human EP-2 receptor are stimulated with PGE2 (5 nM) equivalent to approximately […] values to give the maximal cAMP signal. Decreases in cAMP levels following treatment of stimulated recombinant EP-2 cells with potential antagonist compounds were measured and potency (IC50) calculated as follows.
A Chinese hamster ovary (CHO) cell line stably transfected with full length cDNA encoding human Prostaglandin E2 was established using standard molecular biology methods. Test compounds were dissolved in dimethyl sulphoxide (DMSO) at 4 mM. 11 point half log unit increment dilution series of test compound were prepared in DMSO then diluted 1 in 40 in a buffer comprised of phosphate buffered saline (PBS) and 0.05% pluronic F-127 surfactant. Freshly cultured cells at 80-90% confluence were harvested and re-suspended in 90% growth media/10% DMSO. The cells were frozen using a planar freezer and stored in frozen aliquots in cryovials in liquid nitrogen until the day of the experiment. A vial of cells was defrosted in a 37° C. water bath for 2 min, then transferred to 10 ml of Dulbecco's Modified Eagle's Medium (DMEM). The cells were then centrifuged for 5 min at 1000 g and the pellet re-suspended at 1,000,000 cells/ml in DMEM. 5,000 cells (5 ul) were added to 5 ul of the compound dilution series in a 384 well assay plate and pre-incubated for 30 min at 37° C. 5 ul of agonist (15 nM PGE2 in PBS to give 5 nM FAC) was added and plates further incubated for 90 min at 37° C. The relative cAMP concentration in each well was then measured using a β-galactosidase enzyme fragment complementation method purchased in kit form as the Discoverx cAMP II kit from GE Healthcare, UK. […] Sigmoidal curves were fitted to plots of log10 inhibitor concentration vs percent effect. IC50 estimates were determined as the concentration of test compound giving an effect half way between the bottom and top asymptotes of the sigmoidal dose response curve. Each experiment included an IC50 determination for the literature compound as a standard to track assay consistency and allow fair comparison between values obtained in different experiments. The EC50 of PGE2 is used in combination with the ligand concentration in the assay to determine Ki values for antagonist dose responses using the Cheng-Prusoff equation. Consequently an agonist dose response curve is carried out for each experiment using the same incubation as the antagonist plate.

T1 sequence (P43116 whole entry): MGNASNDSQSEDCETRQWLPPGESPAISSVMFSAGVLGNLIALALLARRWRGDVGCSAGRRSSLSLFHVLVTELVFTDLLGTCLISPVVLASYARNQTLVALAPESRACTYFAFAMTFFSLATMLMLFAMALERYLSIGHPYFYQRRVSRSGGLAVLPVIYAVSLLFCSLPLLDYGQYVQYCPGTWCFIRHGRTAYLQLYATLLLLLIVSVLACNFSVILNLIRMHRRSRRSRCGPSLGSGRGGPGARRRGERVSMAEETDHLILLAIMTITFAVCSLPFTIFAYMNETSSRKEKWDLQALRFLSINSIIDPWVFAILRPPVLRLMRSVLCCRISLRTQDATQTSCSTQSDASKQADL

SMILES: COc1ccc(C(=O)N2CCC(COc3ccc(-c4ccc(C#N)cc4)cc3)(C(=O)O)C2)cc1 (single isomer, unassigned) [Example 1, 3-(4′-Cyano-biphenyl-4-yloxymethyl)-1-(4-methoxy-benzoyl)-pyrrolidine-3-carboxylic acid]
- Ki: 0.633 nM

SMILES: N#Cc1ccc(-c2ccc(OCC3(C(=O)O)CCN(C(=O)c4ccc(F)cc4)C3)cc2)cc1 (single isomer, unassigned) [Example 2, 3-(4′-Cyano-biphenyl-4-yloxymethyl)-1-(4-fluoro-benzoyl)-pyrrolidine-3-carboxylic acid]
- Ki: 0.344 nM

SMILES: O=C(c1ccc(F)cc1)N1CCC(COc2cnc(-c3ccc(Cl)cc3)nc2)(C(=O)O)C1 (single isomer, unassigned) [Example 5]
- Ki: 1.64 nM

SMILES: O=C(c1ccc(F)cc1)N1CCC(COc2cnc(-c3ccc(Cl)cc3)nc2)(C(=O)O)C1 (single isomer, unassigned) [Example 6]
- Ki: 102 nM

SMILES: O=C(c1ccc(F)cc1)N1CCC(COc2ccc(-c3ccc(Cl)cc3)nc2)(C(=O)O)C1 (single isomer, unassigned) [Example 7]
- Ki: 2.97 nM

SMILES: O=C(c1ccc(F)cc1)N1CCC(COc2cnc(-c3ccc(Cl)cc3)cn2)(C(=O)O)C1 (single isomer, unassigned) [Example 10]
- Ki: 0.741 nM

SMILES: O=C(c1ccc(F)cc1)N1CCC(COc2cnc(-c3ccc(Cl)cc3)cn2)(C(=O)O)C1 (single isomer, unassigned) [Example 11]
- Ki: 28.9 nM

SMILES: O=C(c1ccc(F)cc1)N1CCC(COc2ccc(-c3ccc(Cl)cn3)cc2)(C(=O)O)C1 (single isomer, unassigned) [Example 12]
- Ki: 4.82 nM

SMILES: O=C(c1ccc(F)cc1)N1CCC(COc2ccc(-c3ccc(Cl)cn3)cc2)(C(=O)O)C1 (single isomer, unassigned) [Example 13]
- Ki: 333 nM

SMILES: O=C(c1ccc(F)cc1)N1CCC(COc2cccc(F)c2F)(C(=O)O)C1 (single isomer, unassigned) [Example 14]
- Ki: 522 nM

SMILES: O=C(c1ccc(F)cc1)N1CCC(COc2ccc(-c3ncc(Cl)cn3)cc2)(C(=O)O)C1 (single isomer, unassigned) [Example 15]
- Ki: 84.7 nM

SMILES: O=C(c1ccc(F)cc1)N1CCC(COc2ccc(-c3ncc(Cl)cn3)cc2)(C(=O)O)C1 (single isomer, unassigned) [Example 16]
- Ki: 0.692 nM

SMILES: O=C(c1ccc(F)cc1)N1CCC(COc2ccc(-c3ccc(F)cc3)cc2)(C(=O)O)C1 (single isomer, unassigned) [Example 17]
- Ki: 2.01 nM

SMILES: O=C(c1ccc(F)cc1)N1CCC(COc2ccc(-c3ccc(F)cc3)cc2)(C(=O)O)C1 (single isomer, unassigned) [Example 18]
- Ki: 17.2 nM

SMILES: O=C(c1ccc(F)cc1)N1CCC(COc2ccc(F)c(Cl)c2)(C(=O)O)C1 (single isomer, unassigned) [Example 25]
- Ki: 192 nM

SMILES: N#Cc1ccc(-c2ccc(OCC3(C(=O)O)CCN(C(=O)c4ccc(Cl)cc4)C3)cc2)cc1 (single isomer, unassigned) [Example 26]
- Ki: 0.0376 nM

SMILES: N#Cc1ccc(-c2ccc(OCC3(C(=O)O)CCN(C(=O)c4ccc(Cl)cc4)C3)cc2)cc1 (single isomer, unassigned) [Example 27]
- Ki: 4.34 nM

SMILES: O=C(c1ccc(Cl)cc1)N1CCC(COc2ccc(-c3ncc(Cl)cn3)cc2)(C(=O)O)C1 (single isomer, unassigned) [Example 30]
- Ki: 0.461 nM

SMILES: O=C(c1ccc(Cl)cc1)N1CCC(COc2ccc(-c3ncc(Cl)cn3)cc2)(C(=O)O)C1 (single isomer, unassigned) [Example 31]
- Ki: 282 nM

SMILES: O=C(c1ccc(Cl)cc1)N1CCC(COc2ccc(-c3ccc(Cl)cc3)nc2)(C(=O)O)C1 (single isomer, unassigned) [Example 32]
- Ki: 0.735 nM

SMILES: O=C(c1ccc(Cl)cc1)N1CCC(COc2ccc(-c3ccc(Cl)cc3)nc2)(C(=O)O)C1 (single isomer, unassigned) [Example 33]
- Ki: 141 nM

SMILES: O=C(c1ccc(Cl)cc1)N1CCC(COc2cnc(-c3ccc(Cl)cc3)cn2)(C(=O)O)C1 (single isomer, unassigned) [Example 34]
- Ki: 0.743 nM

SMILES: O=C(c1ccc(Cl)cc1)N1CCC(COc2cnc(-c3ccc(Cl)cc3)cn2)(C(=O)O)C1 (single isomer, unassigned) [Example 35]
- Ki: 105 nM

SMILES: O=C(c1ccc(Cl)cc1)N1CCC(COc2ccc(-c3ccc(F)cc3)cc2)(C(=O)O)C1 (single isomer, unassigned) [Example 36]
- Ki: 1.16 nM

SMILES: O=C(c1ccc(Cl)cc1)N1CCC(COc2ccc(-c3ccc(F)cc3)cc2)(C(=O)O)C1 (single isomer, unassigned) [Example 37]
- Ki: 30.3 nM

SMILES: COc1ccc(C(=O)N2CCC(COc3cnc(-c4ccc(Cl)cc4)cn3)(C(=O)O)C2)cc1 (single isomer, unassigned) [Example 38]
- Ki: 3.08 nM

SMILES: COc1ccc(C(=O)N2CCC(COc3cnc(-c4ccc(Cl)cc4)cn3)(C(=O)O)C2)cc1 (single isomer, unassigned) [Example 39]
- Ki: 48.1 nM

SMILES: COc1ccc(C(=O)N2CCC(COc3ccc(-c4ccc(F)cc4)cc3)(C(=O)O)C2)cc1 (single isomer, unassigned) [Example 40]
- Ki: 2.36 nM

SMILES: COc1ccc(C(=O)N2CCC(COc3ccc(-c4ccc(F)cc4)cc3)(C(=O)O)C2)cc1 (single isomer, unassigned) [Example 41]
- Ki: 66.9 nM

SMILES: COc1ccc(C(=O)N2CCC(COc3ccc(-c4ncc(Cl)cn4)cc3)(C(=O)O)C2)cc1 (single isomer, unassigned) [Example 42]
- Ki: 2.93 nM

SMILES: COc1ccc(C(=O)N2CCC(COc3ccc(-c4ncc(Cl)cn4)cc3)(C(=O)O)C2)cc1 (single isomer, unassigned) [Example 43]
- Ki: 145 nM

SMILES: COc1ccc(C(=O)N2CCC(COc3ccc(-c4ccc(Cl)cc4)nc3)(C(=O)O)C2)cc1 (single isomer, unassigned) [Example 44]
- Ki: 3.83 nM

SMILES: COc1ccc(C(=O)N2CCC(COc3ccc(-c4ccc(Cl)cc4)nc3)(C(=O)O)C2)cc1 (single isomer, unassigned) [Example 45]
- Ki: 170 nM

SMILES: COc1ccc(C(=O)N2CCC(COc3ccc(-c4ccc(Cl)cn4)cc3)(C(=O)O)C2)cc1 (single isomer, unassigned) [Example 46]
- Ki: 23.7 nM

SMILES: COc1ccc(C(=O)N2CCC(COc3ccc(-c4ccc(Cl)cn4)cc3)(C(=O)O)C2)cc1 (single isomer, unassigned) [Example 47]
- Ki: 226 nM

SMILES: COc1ccc(C(=O)N2CCC(COc3cnc(-c4ccc(Cl)cc4)nc3)(C(=O)O)C2)cc1 (single isomer, unassigned) [Example 49]
- Ki: 124 nM

SMILES: COc1ccc(C(=O)N2CCC(COc3cnc(-c4ccc(Cl)cc4)nc3)(C(=O)O)C2)cc1 (single isomer, unassigned) [Example 50]
- Ki: 1.88 nM

SMILES: CCOc1ccccc1C(=O)N1CCC(COc2cnc(-c3ccc(Cl)cc3)cn2)(C(=O)O)C1 (single isomer, unassigned) [Example 51]
- Ki: 19.3 nM

SMILES: CCOc1ccccc1C(=O)N1CCC(COc2cnc(-c3ccc(Cl)cc3)cn2)(C(=O)O)C1 (single isomer, unassigned) [Example 52]
- Ki: 134 nM

SMILES: CCOc1ccccc1C(=O)N1CCC(COc2ccc(-c3ccc(F)cc3)cc2)(C(=O)O)C1 (single isomer, unassigned) [Example 53]
- Ki: 17.5 nM

SMILES: CCOc1ccccc1C(=O)N1CCC(COc2ccc(-c3ccc(F)cc3)cc2)(C(=O)O)C1 (single isomer, unassigned) [Example 54]
- Ki: 389 nM

SMILES: CCOc1ccccc1C(=O)N1CCC(COc2ccc(-c3ncc(Cl)cn3)cc2)(C(=O)O)C1 (single isomer, unassigned) [Example 55]
- Ki: 28.9 nM

SMILES: CCOc1ccccc1C(=O)N1CCC(COc2ccc(-c3ncc(Cl)cn3)cc2)(C(=O)O)C1 (single isomer, unassigned) [Example 56]
- Ki: 466 nM

SMILES: CCOc1ccccc1C(=O)N1CCC(COc2cnc(-c3ccc(Cl)cc3)nc2)(C(=O)O)C1 (single isomer, unassigned) [Example 57]
- Ki: 29.4 nM

SMILES: CCOc1ccccc1C(=O)N1CCC(COc2cnc(-c3ccc(Cl)cc3)nc2)(C(=O)O)C1 (single isomer, unassigned) [Example 58]
- Ki: 884 nM

SMILES: COc1ccccc1C(=O)N1CCC(COc2cnc(-c3ccc(Cl)cc3)cn2)(C(=O)O)C1 (single isomer, unassigned) [Example 59]
- Ki: 98.1 nM

SMILES: COc1ccccc1C(=O)N1CCC(COc2ccc(-c3ccc(C#N)cc3)nc2)(C(=O)O)C1 (single isomer, unassigned) [Example 61]
- Ki: 26.2 nM
